The target in this test is IDH1 R132H (Homo sapiens (Human), UniProt O75874, R132H). Nature of the test: Assays for IDH1 R132H Inhibitors (NADPH/aKG, resazurin detection). The test is classed as biochemical. The following applies: IDH1 R132H enzyme, Table 2; read-out: IDHR132H Activity. The procedure, abridged:
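Mutant enzyme in 150 mM NaCl, 10 mM MgCl2, 20 mM Tris pH 7.5, 0.03% BSA; compound in DMSO added to substrate mix of 8 uM NADPH and 2 mM aKG. Reaction ran 50 min at room temperature, then resazurin detection mix (30 μM) added for 5 min at room temperature.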

Chain of IDH1 R132H (O75874 whole entry R132H): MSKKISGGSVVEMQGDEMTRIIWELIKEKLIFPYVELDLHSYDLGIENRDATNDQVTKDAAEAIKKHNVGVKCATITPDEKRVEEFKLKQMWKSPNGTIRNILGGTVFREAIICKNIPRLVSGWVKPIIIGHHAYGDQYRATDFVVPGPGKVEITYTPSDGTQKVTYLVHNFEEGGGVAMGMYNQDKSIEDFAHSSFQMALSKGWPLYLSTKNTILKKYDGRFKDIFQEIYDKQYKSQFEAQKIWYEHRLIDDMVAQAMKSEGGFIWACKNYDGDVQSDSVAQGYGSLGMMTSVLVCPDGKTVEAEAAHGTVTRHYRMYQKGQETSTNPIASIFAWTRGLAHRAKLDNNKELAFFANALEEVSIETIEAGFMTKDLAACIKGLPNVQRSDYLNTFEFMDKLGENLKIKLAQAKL

In the case of `CC1(C)Cc2c(C#N)c(N3CCN(C(=O)c4ccoc4)[C@H](c4ccccc4)C3)nc(C3CC3)c2CO1` [Compound 274, (R)-8-cyclopropyl-6-(4-(furan-3-carbonyl)-3-phenylpiperazin-1-yl)-3,3-dimethyl-3,4-dihydro-1H-pyrano[3,4-c]pyridine-5-carbonitrile], the IC50 fell in the range of 1000 to 10000 nM. The figure for `C[C@@H]1CN(c2nc(C3CCCCC3)c3c(c2C#N)CCOC3)CCN1C(=O)c1nccn1C` [Compound 262, (R)-8-cyclohexyl-6-(3-methyl-4-(1-methyl-1H-imidazole-2-carbonyl)piperazin-1-yl)-3,4-dihydro-1H-pyrano[3,4-c]pyridine-5-carbonitrile] is 1000 to 10000 nM; for `CCOC(=O)C1CN(c2nc(C3CCCCC3)c3c(c2C#N)CCOC3)CCN1C(=O)c1ccco1` (centres unmarked) [Compound 314, ethyl 4-(5-cyano-8-cyclohexyl-3,4-dihydro-1H-pyrano[3,4-c]pyridin-6-yl)-1-(furan-2-carbonyl) piperazine-2-carboxylate] it is 1000 to 10000 nM. In the case of `Cc1cc(C(=O)N2CCN(c3nc(C4CCCCC4)c4c(c3C#N)CCOC4)CC2)c(C)o1` [Compound 121, 8-cyclohexyl-6-(4-(2,5-dimethylfuran-3-carbonyl)piperazin-1-yl)-3,4-dihydro-1H-pyrano[3,4-c]pyridine-5-carbonitrile] it was 1000 to 10000 nM; in that of `CC(C)c1nc(N2CCN(C(=O)c3cocn3)[C@H](C)C2)c(C#N)c2c1COC(C)(C)C2` [Compound 198, (R)-8-isopropyl-3,3-dimethyl-6-(3-methyl-4-(oxazole-4-carbonyl)piperazin-1-yl)-3,4-dihydro-1H-pyrano[3,4-c]pyridine-5-carbonitrile], 1000 to 10000 nM; in that of `COCCC(=O)N1CCN(c2nc(C3CC3)c3c(c2C#N)CC(C)(C)OC3)C[C@H]1C(C)C` [Compound 270, (R)-8-cyclopropyl-6-(3-isopropyl-4-(3-methoxypropanoyl)piperazin-1-yl)-3,3-dimethyl-3,4-dihydro-1H-pyrano[3,4-c]pyridine-5-carbonitrile], less than 500 nM.

On to `CC1(C)Cc2c(C#N)c(N3CCN(C(=O)c4ccco4)C(C)(C)C3)nc(C3CC3)c2CO1` [Compound 319], for which the IC50 is 1000 to 10000 nM. The figure for `COc1cccc(CC(=O)N2CCN(c3nc(C4CC4)c4c(c3C#N)CC(C)(C)OC4)C[C@H]2C(C)C)c1` [Compound 254] is 500 to 1000 nM. For the molecule `CC(C)[C@@H]1CN(c2nc(C3CCCCC3)c3c(c2C#N)CCOC3)CCN1C(=O)c1ccoc1` [Compound 183, (R)-8-cyclohexyl-6-(4-(furan-3-carbonyl)-3-isopropylpiperazin-1-yl)-3,4-dihydro-1H-pyrano[3,4-c]pyridine-5-carbonitrile], the IC50 was 1000 to 10000 nM. The figure for `CC(C)c1nc(N2CCN(C(=O)c3ccco3)C(C)C2)c(C#N)c2c1CCCC2` (centres unmarked) [Compound 125, 3-(4-(furan-2-carbonyl)-3-methylpiperazin-1-yl)-1-isopropyl-5,6,7,8-tetrahydroisoquinoline-4-carbonitrile] is 1000 to 10000 nM. With `CC(C)[C@@H]1CN(c2nc(C3CC3)c3c(c2C#N)CC(C)(C)OC3)CCN1C(=O)NCC1CC1` [Compound 365], the IC50 fell in the range of 1000 to 10000 nM. In the case of `CC[C@@H]1CN(c2nc(C3CC3)c3c(c2C#N)CC(C)(C)OC3)CCN1C(=O)Cc1ccccc1OC` [Compound 295] it was 500 to 1000 nM; in that of `C[C@@H]1CN(c2nc(C3CCCC3)c3c(c2C#N)CC(C)(C)OC3)C[C@H](C)N1C(=O)c1ccoc1` [Compound 146, 8-cyclopentyl-6-((3S,5R)-4-(furan-3-carbonyl)-3,5-dimethylpiperazin-1-yl)-3,3-dimethyl-3,4-dihydro-1H-pyrano[3,4-c]pyridine-5-carbonitrile], 1000 to 10000 nM. Consider `COCCC(=O)N1CCN(c2nc(C(C)C)c3c(c2C#N)CC(C)(C)OC3)C[C@H]1C` [Compound 268, (R)-8-isopropyl-6-(4-(3-methoxypropanoyl)-3-methylpiperazin-1-yl)-3,3-dimethyl-3,4-dihydro-1H-pyrano[3,4-c]pyridine-5-carbonitrile], for which the IC50 lay in the range of 500 to 1000 nM.

The values above are taken from patent US9662327B2 (AGIOS PHARMACEUTICALS, INC, priority 2011, dated 2017).
